Measured values taken from patent publication US12491252B2, “Substituted 3-amino-5-phenylbenzamide compounds as covalent inhibitors of enhancer zeste homolog 2 (EZH2) and proteolysis-targeting chimeric derivatives thereof (PROTACs) that induce degradation of EZH2” (Northwestern University, priority 2021, dated 2025).
Blank lines part the entries; values can stand above or below the compound they belong to.

Assays:
[1] = target: T1, EZH2 (Homo sapiens, UniProt Q15910); assay: Western blot of EZH2 protein in C4-2B cells; conditions: for Degrading EZH2 protein: FIG. 5, 24 or 48 hours; for Degradation of EZH2: FIG. 14, 10 μM for 6 days
[2] = tested on: SUZ12; assay: Western blot of SUZ12 in C4-2B cells; type: cell-based; conditions: FIG. 14, 10 μM for 6 days
[3] = tested on: H3K27me3; assay: Western blot of H3K27me3 levels in C4-2B cells; type: cell-based; conditions: FIG. 14, 10 μM for 6 days
[4] = Pharmacokinetics in mice, IP cassette dosing, plasma LC/MS/MS; type: in vivo, C57Bl/6 mouse; conditions: mouse, C57Bl/6 mice, 4 mg/kg IP, cassette format
Protocol: FIG. 35. Pharmacokinetics of indicated compounds. Compounds were administered to C57Bl/6 mouse mice at 4 mg/kg using intraperitoneal (IP) injection in cassette format. Plasma was collected at the indicated time points and analyzed by LC/MS/MS using standard methods.
For assessing pharmacokinetics, compounds were administered to C57Bl/6 mouse mice at 4 mg/kg using intraperitoneal (IP) injection in cassette format. Plasma was collected at the indicated time points and analyzed by LC/MS/MS using standard methods.

[5] = tested on: C4-2B cells; assay: Live imaging cell proliferation of C4-2B cells; type: cell-based; conditions: FIG. 20A, monitored over 168 hours
Source text: FIG. 20A-20B. (FIG. 20A) Live imaging cell proliferation of C4-2B cells. […] DMSO is set as the negative control. […] (FIG. 20B) Colony assays using C4-2B cells after treatment with the indicated compounds for 7 days.

[6] = tested on: LNCaP cells; assay: Imaging of LnCaP cells (cell density); type: cell-based; conditions: FIG. 18, 12 days' treatment
Source text: FIG. 18. Imaging of LnCaP cells after 12 days' treatment with the indicated compounds.

[7] = tested on: LNCaP cells; assay: Colony assay using LnCaP cells; type: cell-based; conditions: FIG. 17B, treatment for 7 days
Protocol: (§1) FIG. 17A-17B. (FIG. 17A) Live imaging cell proliferation of LNCaP cells. Cells were treated with indicated compounds and monitored over 168 hours for proliferation by phase object confluence. DMSO is set as the negative control. […] (FIG. 17B) Colony assays using LnCaP cells after treatment with the indicated compounds for 7 days.

[8] = target: T1, EZH2; assay: Western blot of EZH2 with esiRNA knockdown of VHL or siRNA control; type: cell-based; conditions: FIG. 16; siRNA control lane; duplicate
Protocol: FIG. 16. Cells were treated with indicated compounds with either esiRNA knockdown of VHL or siRNA control (no EZH2 knockdown) and blotted for EZH2 and VHL. […] Experiment was run in duplicate with both replicates shown on the left and right sides.

[9] = target: T1, EZH2; assay: Western blot of EZH2 protein in DU-145 cells; conditions: FIG. 27, 6 days treatment
Source text: (Upper right western blot) Western blot analysis of EZH2 protein in DU-145 cells after 6 days treatment.

[10] = tested on: LNCaP cells; assay: Live imaging cell proliferation of LNCaP cells; type: cell-based; conditions: FIG. 17A, monitored over 168 hours
Source text: FIG. 17A-17B. (FIG. 17A) Live imaging cell proliferation of LNCaP cells. […] DMSO is set as the negative control. […] (FIG. 17B) Colony assays using LnCaP cells after treatment with the indicated compounds for 7 days.

[11] = target: T1, EZH2; assay: Western blot of EZH2 protein in PC3 cells; conditions: FIG. 26, 6 days treatment
Source text: (Upper right western blot) Western blot analysis of EZH2 protein in PC3 cells after 6 days treatment.

[12] = tested on: C4-2B cells; assay: Colony assay using C4-2B cells; type: cell-based; conditions: FIG. 20B, treatment for 7 days
Protocol: as §1, with “20A-20B.” for “17A-17B.”, “20A)” for “17A)”, “C4-2B” for “LNCaP”, “20B)” for “17B)”, “C4-2B” for “LnCaP”

[13] = tested on: C4-2B cells; assay: Imaging of C4-2B cells (cell density); type: cell-based; conditions: FIG. 21, 12 days' treatment
Source text: FIG. 21. Imaging of C4-2B cells after 12 days' treatment with the indicated compounds.

[14] = FIG. 7, 24 hours, 5 μM or 10 μM MG132
[15] = FIG. 1, increasing doses 24 or 48 hours, or 0.5 μM over a time course

T1 sequence (Q15910 whole entry): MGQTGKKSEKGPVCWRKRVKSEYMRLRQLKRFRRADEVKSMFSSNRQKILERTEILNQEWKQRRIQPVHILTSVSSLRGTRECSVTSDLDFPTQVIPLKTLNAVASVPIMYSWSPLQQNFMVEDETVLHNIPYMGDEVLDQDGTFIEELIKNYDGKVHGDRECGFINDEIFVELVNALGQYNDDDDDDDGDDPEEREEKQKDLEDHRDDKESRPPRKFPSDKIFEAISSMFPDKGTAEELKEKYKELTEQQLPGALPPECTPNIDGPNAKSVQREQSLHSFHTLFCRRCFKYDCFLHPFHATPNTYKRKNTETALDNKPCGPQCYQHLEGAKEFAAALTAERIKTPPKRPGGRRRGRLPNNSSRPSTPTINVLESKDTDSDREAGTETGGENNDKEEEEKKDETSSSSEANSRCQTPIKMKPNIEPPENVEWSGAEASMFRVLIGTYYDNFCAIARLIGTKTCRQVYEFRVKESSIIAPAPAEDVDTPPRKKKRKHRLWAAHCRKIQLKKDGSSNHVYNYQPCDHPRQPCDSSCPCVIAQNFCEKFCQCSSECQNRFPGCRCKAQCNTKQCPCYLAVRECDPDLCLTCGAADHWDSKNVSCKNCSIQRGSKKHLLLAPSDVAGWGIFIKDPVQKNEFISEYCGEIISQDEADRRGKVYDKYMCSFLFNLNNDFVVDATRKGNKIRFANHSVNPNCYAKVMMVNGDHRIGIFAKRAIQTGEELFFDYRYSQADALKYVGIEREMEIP
T1 sequence (Q15022 whole entry partner): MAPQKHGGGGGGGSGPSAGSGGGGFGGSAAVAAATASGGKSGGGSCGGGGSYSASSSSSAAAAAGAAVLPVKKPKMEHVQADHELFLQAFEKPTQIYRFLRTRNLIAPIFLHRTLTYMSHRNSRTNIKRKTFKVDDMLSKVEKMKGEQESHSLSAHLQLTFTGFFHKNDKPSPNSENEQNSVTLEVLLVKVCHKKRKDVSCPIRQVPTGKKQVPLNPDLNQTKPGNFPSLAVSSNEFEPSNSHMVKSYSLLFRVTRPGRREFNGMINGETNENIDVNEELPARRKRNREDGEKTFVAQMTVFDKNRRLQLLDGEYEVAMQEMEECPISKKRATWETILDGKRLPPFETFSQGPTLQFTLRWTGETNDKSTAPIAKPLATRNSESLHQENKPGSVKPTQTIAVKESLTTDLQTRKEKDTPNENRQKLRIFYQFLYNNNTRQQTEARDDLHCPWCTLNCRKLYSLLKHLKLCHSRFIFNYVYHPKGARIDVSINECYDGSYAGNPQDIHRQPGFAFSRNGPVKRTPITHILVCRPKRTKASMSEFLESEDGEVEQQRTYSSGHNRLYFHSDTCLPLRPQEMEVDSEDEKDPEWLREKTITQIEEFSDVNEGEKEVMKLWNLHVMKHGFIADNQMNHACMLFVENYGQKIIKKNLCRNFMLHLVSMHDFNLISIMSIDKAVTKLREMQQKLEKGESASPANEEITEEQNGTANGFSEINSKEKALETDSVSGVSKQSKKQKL
T1 sequence (O75530 whole entry partner): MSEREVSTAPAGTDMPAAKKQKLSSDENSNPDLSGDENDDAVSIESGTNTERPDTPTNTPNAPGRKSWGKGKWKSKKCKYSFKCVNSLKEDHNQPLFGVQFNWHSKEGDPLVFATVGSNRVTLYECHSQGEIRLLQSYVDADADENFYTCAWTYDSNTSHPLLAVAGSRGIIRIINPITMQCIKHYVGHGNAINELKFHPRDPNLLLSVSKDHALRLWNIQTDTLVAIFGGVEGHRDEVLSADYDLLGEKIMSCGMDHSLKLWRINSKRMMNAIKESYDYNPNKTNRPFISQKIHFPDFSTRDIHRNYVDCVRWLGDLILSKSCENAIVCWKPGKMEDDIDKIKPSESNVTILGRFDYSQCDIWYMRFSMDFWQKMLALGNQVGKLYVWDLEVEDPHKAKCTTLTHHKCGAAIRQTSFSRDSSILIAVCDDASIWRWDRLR

Compound: CCN(c1cc(-c2ccc(CN3CCOCC3)cc2)cc(C(=O)NCc2c(C)cc(C)[nH]c2=O)c1C)C1CCN(C(=O)CCCCCCCCCCC(=O)NCCOc2cccc3c2C(=O)N(C2CCC(=O)NC2=O)C3=O)CC1 (stereo not drawn) [Compound 2099]
EZH2 protein levels (western blot) ([1]; FIG. 28, 24 hours): reduce EZH2 protein levels

Compound: CCN(c1cc(-c2ccc(CN3CCOCC3)cc2)cc(C(=O)NCc2c(C)cc(C)[nH]c2=O)c1C)C1CCN(C(=O)CCCCCCCCCCCCCCC(=O)NCCOc2cccc3c2C(=O)N(C2CCC(=O)NC2=O)C3=O)CC1 (stereo not drawn) [Compound 2100]
EZH2 protein levels (western blot) ([1]; FIG. 28, 24 hours): reduce EZH2 protein levels

Compound: CCN(c1cc(-c2ccc(CN3CCN(C(=O)COCC(=O)NCCCC(=O)NCCOc4cccc5c4C(=O)N(C4CCC(=O)NC4=O)C5=O)CC3)cc2)cc(C(=O)NCc2c(C)cc(C)[nH]c2=O)c1C)C1CCOCC1 (stereo not drawn) [Compound 2186]
EZH2 protein levels (western blot) ([1]; FIG. 28, 24 hours): inactive at degrading EZH2

Compound: CCN(c1cc(-c2ccc(N3CCN(C(=O)CCC(=O)NCCCC(=O)NCCCC(=O)NCCCOc4cccc5c4C(=O)N(C4CCC(=O)NC4=O)C5=O)CC3)cc2)cc(C(=O)NCc2c(C)cc(C)[nH]c2=O)c1C)C1CCOCC1 (stereo not drawn) [Compound 2190]
EZH2 protein levels (western blot) ([1]; FIG. 28, 24 hours): reduce EZH2 protein levels

Compound: CCN(c1cc(-c2ccc(CN3CCN(C(=O)CCCCCCCCCCCCCCC(=O)N[C@H](C(=O)C4C[C@H](O)C[C@H]4C(=O)NCc4ccc(-c5scnc5C)cc4)C(C)(C)C)CC3)cc2)cc(C(=O)NCc2c(C)cc(C)[nH]c2=O)c1C)C1CCOCC1 (stereo partly drawn) [Compound 2305]
EZH2 protein levels (western blot) [1, 15]: decreases EZH2 protein levels | Rescue of EZH2 protein degradation by proteasome inhibitor MG132 ([1]; FIG. 2, 5 μM compound with or without MG132): can be rescued by proteasome inhibitor MG132 | Degrading EZH2 protein [1]: effective in degrading EZH2 protein | Restoration of EZH2 by proteasome inhibitor MG132 [1, 14]: restored EZH2 | EZH2 protein levels (western blot) ([1]; FIG. 28, 24 hours): significant reduction in EZH2 | half-life [4]: 3.5 to 6 h

Compound: Cc1cc(C)c(CNC(=O)c2cc(-c3ccc(N4CCN(CCNC(=O)CC56CC7CC(CC(C7)C5)C6)CC4)nc3)cc3c2cnn3C(C)C)c(=O)[nH]1 [MS1943, reference compound]
Ability to degrade EZH2 at 0.5 μM ([1]; FIG. 28, 24 hours, 0.5 μM): no ability to degrade EZH2

Continued, in another order:

EZH2 degradation, comparison within a list of VHL-PROTAC ([1]; FIG. 4, 24 hours): most effective | Degrading EZH2 protein [1]: effective in degrading EZH2 protein | Degrading EZH2 protein, 2304 versus 2305 ([1]; FIG. 6, 24 or 48 hours): more effective than 2305 | Restoration of EZH2 by proteasome inhibitor MG132 [1, 14]: restored EZH2 | Restoration of EZH2 by proteasome inhibitor MG132 ([1]; FIG. 11, 24 hours, 10 μM MG132): restored EZH2 | Degradation of EZH2 [1]: strong degradation of EZH2 | EZH2 protein levels (western blot) ([1]; FIG. 28, 24 hours): significant reduction in EZH2 | half-life [4]: 3.5 to 6 h
Compound: CCN(c1cc(-c2ccc(CN3CCN(C(=O)CCCCCCCCCCC(=O)N[C@H](C(=O)N4C[C@H](O)C[C@@H]4C(=O)NCc4ccc(-c5scnc5C)cc4)C(C)(C)C)CC3)cc2)cc(C(=O)NCc2c(C)cc(C)[nH]c2=O)c1C)C1CCOCC1 [Compound 2304, (2R,4R)-1-[(2S)-2-(12-{4-[(3′-{[(4,6-dimethyl-2-oxo-1,2-dihydropyridin-3-yl)methyl]carbamoyl}-5′-[ethyl(oxan-4-yl)amino]-4′-methyl-[1,1′-biphenyl]-4-yl)methyl]piperazin-1-yl}-12-oxododecanamido)-3,3-dimethylbutanoyl]-4-hydroxy-N-{[4-(4-methyl-1,3-thiazol-5-yl)phenyl]methyl}pyrrolidine-2-carboxamide]
Reduction of PRC2 component SUZ12 [2]: reduction of PRC2 component SUZ12 | H3K27me3 levels [3]: reduced H3K27me3 levels

EZH2 protein levels (western blot) [1, 15]: inactive | Degrading EZH2 protein, versus 2305 ([1]; FIG. 12, 24 hours): less effective than 2305
Compound: CCN(c1cc(-c2ccc(CN3CCN(C(=O)CCCCCCCCCCCCCCC(=O)N[C@H](C(=O)N4C[C@@H](O)C[C@H]4C(=O)NCc4ccc(-c5scnc5C)cc4)C(C)(C)C)CC3)cc2)cc(C(=O)NCc2c(C)cc(C)[nH]c2=O)c1C)C1CCOCC1 [Compound 3571]

Restoration of EZH2 by proteasome inhibitor MG132 ([1]; FIG. 11, 24 hours, 10 μM MG132): restored EZH2
Compound: CCN(c1cc(-c2ccc(CN3CCN(C(=O)CCCCCCCCC(=O)N[C@H](C(=O)N4C[C@H](O)C[C@H]4C(=O)NCc4ccc(-c5scnc5C)cc4)C(C)(C)C)CC3)cc2)cc(C(=O)NCc2c(C)cc(C)[nH]c2=O)c1C)C1CCOCC1 [Compound 6271]

Restoration of EZH2 by proteasome inhibitor MG132 ([1]; FIG. 11, 24 hours, 10 μM MG132): restored EZH2
Compound: CCN(c1cc(-c2ccc(CN3CCN(C(=O)CCCCCCCCCCCC(=O)N[C@H](C(=O)N4C[C@H](O)C[C@H]4C(=O)NCc4ccc(-c5scnc5C)cc4)C(C)(C)C)CC3)cc2)cc(C(=O)NCc2c(C)cc(C)[nH]c2=O)c1C)C1CCOCC1 [Compound 6273]

Degradation of EZH2 [1]: no ability to degrade EZH2
Compound: CCN(c1cc(-c2ccc(CN3CCN(C(=O)CCCCCCCCCCC(=O)N[C@H](C(=O)N4C[C@@H](O)C[C@H]4C(=O)NCc4ccc(-c5scnc5C)cc4)C(C)(C)C)CC3)cc2)cc(C(=O)NCc2c(C)cc(C)[nH]c2=O)c1C)C1CCOCC1 [Compound 6285]

Ability to degrade EZH2 with siRNA control (VHL present) [8]: inactive control | EZH2 protein (western blot) [9]: no changes | EZH2 protein (western blot) [11]: no changes | Degradation of EZH2 [1]: no ability to degrade EZH2
Compound: CCN(c1cc(-c2ccc(CN3CCN(C(=O)CCCCCCCCCC(=O)N[C@H](C(=O)N4C[C@@H](O)C[C@H]4C(=O)NCc4ccc(-c5scnc5C)cc4)C(C)(C)C)CC3)cc2)cc(C(=O)NCc2c(C)cc(C)[nH]c2=O)c1C)C1CCOCC1 [Compound 6286]
Cell proliferation by phase object confluence [5]: limited ability to inhibit cell proliferation | Cell density by imaging [6]: attenuated anti-proliferative effects | Colonies [7]: attenuated anti-proliferative effects | Cell proliferation by phase object confluence [10]: limited ability to inhibit cell proliferation | Colonies [12]: attenuated anti-proliferative effects | Cell density by imaging [13]: attenuated anti-proliferative effects

EZH2 protein (western blot) [9]: no changes | EZH2 protein (western blot) [11]: no changes | Degradation of EZH2 [1]: no ability to degrade EZH2
Compound: CCN(c1cc(-c2ccc(CN3CCN(CCCCCCCCCCCC(=O)N[C@H](C(=O)N4C[C@@H](O)C[C@H]4C(=O)NCc4ccc(-c5scnc5C)cc4)C(C)(C)C)CC3)cc2)cc(C(=O)NCc2c(C)cc(C)[nH]c2=O)c1C)C1CCOCC1 [Compound 6300]
Cell proliferation by phase object confluence [5]: limited ability to inhibit cell proliferation | Cell density by imaging [6]: attenuated anti-proliferative effects | Colonies [7]: attenuated anti-proliferative effects | Cell proliferation by phase object confluence [10]: limited ability to inhibit cell proliferation | Colonies [12]: attenuated anti-proliferative effects | Cell density by imaging [13]: attenuated anti-proliferative effects
